Experiments:
Type in all cases: cell-based
[1] = system: H3K9Ac and H3K56Ac in HT29 cells; assay: Western blot of SIRT6 deacetylation substrates in HT29 cells
Source text: (§1) A Western Blot experimental method is used to detect the effect of SIRT6 small molecule allosteric activator as active ingredients in Table 1 and Table 2 for SIRT6 deacetylated active substrates H3K9 AC and H3K56 AC in cell cells.
(§2) HEK-293 T cells, Bel7405 cells, PLC/PFR/5 cells, Bel 7402 cells, HCT116 cells, HT29 cells, SW 480 cells, and HCT116 cells are test objects.
(§3) Step 1: the compound mother liquor (solvent is DMSO) listed in Table 1 and Table 2, the gradient concentration comprising 0.5 μmol/L, 1 μmol/L, 5 μmol/L, 10 μmol/L, 25 μmol/L and 50 μmol/L;
(§4) Step 3: the cell state was good after 24 hours, the fresh culture solution (2 mL) was replaced, and the mother liquor configured above is added to the cell culture solution of the experimental group according to the ratio of 1:1000; the same volume of DMSO (2 ul) is added to the cell culture solution of the control group;
(§5) Step 4: continue to culture for a certain time (12 hours, 24 hours, 48 hours or 60 hours).
(§6) 1) for each group of cells at the end of culture, the culture medium in each well is discarded and washed with 1*PBS once;
(§7) 2) add 150 μl SDS lysate containing bromophenol blue into each well, mix well and transfer to 1.5 ml EP tube respectively;
(§8) 3) store at 95° C. for 5 min, then on ice for 5 min, repeat three times;
(§9) 4) the supernatant is centrifuged at 12000×g for 5 min for Western blot detection.

[2] = system: H3K9Ac and H3K56Ac in HCT116 cells; assay: Western blot of SIRT6 deacetylation substrates in HCT116 cells
Source text: as §1, §2, §3, §4, §5, §6, §7, §8, §9

[3] = system: H3K9Ac and H3K56Ac in SW480 cells; assay: Western blot of SIRT6 deacetylation substrates in SW480 cells
Source text: as §1, §2, §3, §4, §5, §6, §7, §8, §9

## C[C@@H]1COCCN1C(C)(C)C [SOL-011]
[1]; 10 μmol/L, 24 hours and 48 hours, FIG. 43
  H3K9Ac and H3K56Ac (Western blot): down regulated H3K9Ac and H3k56ac
[1]; different concentrations, 48 hours, FIG. 46
  H3K9Ac and H3K56Ac (Western blot): down regulated H3K9Ac and H3k56ac
[2]; CT116 cells, different concentrations, 48 hours, FIG. 45
  H3K9Ac and H3K56Ac (Western blot): down regulated H3K9Ac and h3k56ac
[2]; HCT116 cells, 10 μmol/L, 24 hours and 48 hours, FIG. 42
  H3K9Ac and H3K56Ac (Western blot): down regulated H3K9Ac and H3k56ac
[3]; 10 μmol/L, 24 hours and 48 hours, FIG. 44
  H3K9Ac and H3K56Ac (Western blot): can down regulate H3K9Ac and H3k56ac
[3]; different concentrations, 48 hours, FIG. 47
  H3K9Ac and H3K56Ac (Western blot): down regulated H3K9Ac and H3k56ac
